Measurements: PMC2924751 (Chemical research in toxicology, 2010)

Key:
P450 3A4 = P450 3A4 (Homo sapiens, UniProt P08684); assay: in vitro
P450 3A5 = P450 3A5 (Homo sapiens, UniProt P20815); assay: in vitro
P450 3A5, sequence (P20815 whole entry): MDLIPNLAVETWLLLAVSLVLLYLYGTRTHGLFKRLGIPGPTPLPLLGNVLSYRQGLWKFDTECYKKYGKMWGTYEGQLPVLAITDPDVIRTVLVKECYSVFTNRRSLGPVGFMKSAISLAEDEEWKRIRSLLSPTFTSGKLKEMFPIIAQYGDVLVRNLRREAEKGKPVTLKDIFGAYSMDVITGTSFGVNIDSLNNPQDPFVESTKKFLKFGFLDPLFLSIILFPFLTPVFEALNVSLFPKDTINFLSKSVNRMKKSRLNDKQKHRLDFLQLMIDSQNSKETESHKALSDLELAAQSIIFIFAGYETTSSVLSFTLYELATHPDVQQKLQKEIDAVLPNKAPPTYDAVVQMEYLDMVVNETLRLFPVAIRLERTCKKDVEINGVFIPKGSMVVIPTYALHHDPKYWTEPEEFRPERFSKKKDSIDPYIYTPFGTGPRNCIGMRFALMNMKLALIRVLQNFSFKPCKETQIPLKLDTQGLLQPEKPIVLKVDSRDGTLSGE
P450 3A5, sequence (P16435 2-677 partner): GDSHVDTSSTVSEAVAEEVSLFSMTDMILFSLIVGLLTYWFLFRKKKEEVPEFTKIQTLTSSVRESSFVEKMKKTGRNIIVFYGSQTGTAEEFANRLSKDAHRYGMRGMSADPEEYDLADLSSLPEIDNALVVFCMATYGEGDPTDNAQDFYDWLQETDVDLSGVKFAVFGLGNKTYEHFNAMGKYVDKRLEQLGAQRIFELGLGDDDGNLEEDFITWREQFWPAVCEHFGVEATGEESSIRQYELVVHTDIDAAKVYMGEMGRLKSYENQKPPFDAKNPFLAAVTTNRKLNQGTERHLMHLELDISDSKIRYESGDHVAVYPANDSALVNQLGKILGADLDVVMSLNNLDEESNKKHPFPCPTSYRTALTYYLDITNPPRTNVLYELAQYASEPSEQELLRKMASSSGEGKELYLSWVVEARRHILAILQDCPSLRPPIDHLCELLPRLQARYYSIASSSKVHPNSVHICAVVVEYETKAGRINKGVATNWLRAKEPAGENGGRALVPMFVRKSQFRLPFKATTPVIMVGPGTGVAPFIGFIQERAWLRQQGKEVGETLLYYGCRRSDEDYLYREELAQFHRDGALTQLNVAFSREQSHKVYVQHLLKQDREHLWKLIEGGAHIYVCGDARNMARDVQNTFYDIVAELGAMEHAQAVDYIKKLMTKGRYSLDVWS
P450 3A5, sequence (P00167 2-134 partner): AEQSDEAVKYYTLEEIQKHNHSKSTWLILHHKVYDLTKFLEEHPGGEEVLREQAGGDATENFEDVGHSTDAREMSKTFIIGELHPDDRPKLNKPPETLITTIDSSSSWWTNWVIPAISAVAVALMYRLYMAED

P450 3A4, sequence (P08684 2-503): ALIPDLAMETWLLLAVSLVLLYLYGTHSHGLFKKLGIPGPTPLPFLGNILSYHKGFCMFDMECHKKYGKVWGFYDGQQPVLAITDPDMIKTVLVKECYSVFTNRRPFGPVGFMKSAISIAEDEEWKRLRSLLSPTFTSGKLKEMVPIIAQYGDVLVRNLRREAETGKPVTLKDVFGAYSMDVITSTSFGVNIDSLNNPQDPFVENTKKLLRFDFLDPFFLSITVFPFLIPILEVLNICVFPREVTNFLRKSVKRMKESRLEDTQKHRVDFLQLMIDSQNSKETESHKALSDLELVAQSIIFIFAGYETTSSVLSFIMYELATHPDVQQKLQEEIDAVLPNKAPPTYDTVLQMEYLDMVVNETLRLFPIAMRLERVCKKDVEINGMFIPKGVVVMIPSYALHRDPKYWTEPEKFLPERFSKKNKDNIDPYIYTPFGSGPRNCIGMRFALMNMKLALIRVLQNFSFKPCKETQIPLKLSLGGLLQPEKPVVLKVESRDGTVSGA
P450 3A4, sequence (P16435 2-677 partner): as the sequence (P16435 2-677 partner) above
P450 3A4, sequence (P00167 2-134 partner): as the sequence (P00167 2-134 partner) above

`CCC(=O)O[C@]1(C(=O)SCF)[C@H](C)C[C@H]2[C@@H]3C[C@H](F)C4=CC(=O)C=C[C@]4(C)[C@@]3(F)[C@@H](O)C[C@@]21C` [FLT, fluticasone propionate] gave a KI (inactivation) (P450 3A4) of 3.5 µM and a KI (inactivation) (P450 3A5) of 16 µM.
